Assay results as given in patent US4091114A, “Pharmaceutically active 2-omega-aminoalkoxydiphenylmethanes” (Mitsubishi Chemical Industries Limited, priority 1976, dated 1978).
Counter-ions that a name gives are not always drawn.

Experiments:
[1] = test system: reserpine induced hypothermia; assay: Antireserpine activity in mice (antagonism of reserpine induced hypothermia); format: in vivo
in vivo = details: mouse, ip
mice = details: mouse, in vivo, ip
[2] = mice, i.p., reserpine 5 mg/kg i.p., Amitriptyline = 1

CCNCCCCOc1ccccc1Cc1ccccc1 [2-(4-ethylaminobutoxy)diphenylmethane hydrochloride]
Antireserpine activity, Relative Potency ([1]; mouse, in vivo): 0.53
LD50 (in vivo): 120 mg/kg

CN(C)CCC=C1c2ccccc2CCc2ccccc21 [Amitriptyline]
LD50 (mice): 65 mg/kg

CN(C)CCCCCOc1ccccc1Cc1ccccc1 [2-(5-dimethylaminopentyloxy)diphenylmethane hydrochloride]
Antireserpine activity, Relative Potency [1, 2]: 0.23
antidepressant activity (in words) ([1]; mouse, in vivo): inferior antidepressant activity

CNCCCCCOc1ccccc1Cc1ccccc1 [2-(5-methylaminopentyloxy)diphenylmethane hydrochloride]
Antireserpine activity, Relative Potency ([1]; mouse, in vivo): 0.54
LD50 (in vivo): 160 mg/kg

c1ccc(Cc2ccccc2OCCCCN2CCCCC2)cc1 [2-[4-(1-piperidyl)butoxy]diphenylmethane hydrochloride]
Antireserpine activity, Relative Potency [1, 2]: 0.41

CN(C)CCCCOc1ccccc1Cc1ccccc1.Cl [2-(4-dimethylaminobutoxy) diphenyl methane hydrochloride]
Antireserpine activity, Relative Potency ([1]; mouse, in vivo): 0

CN(C)CCCOc1ccccc1Cc1ccccc1 [2-(3-dimethylaminopropoxy)diphenylmethane hydrochloride]
antidepressant activity (in words) ([1]; mouse, in vivo): no such activity
